Where two headings read alike, the source gives them in different places.
How the values were obtained:
Experiment in all cases: MIC of compounds alone and combined with antibacterials, broth microdilution (CLSI)
Type in all cases: cell-based
[1] = system: Klebsiella pneumoniae (KPN) isolates; details: Klebsiella pneumoniae, read-out: MIC
Summary of the method: (§1)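 Broth microdilution in cation-adjusted Mueller-Hinton broth, inoculum 5.10^5 CFU/mL, 16-20 h at 35° C in ambient air, on genotyped isolates. Compound MIC, alone or with an antibacterial, taken visually as lowest concentration preventing growth; antibacterial MIC determined at each compound concentration.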

[2] = system: Citrobacter freundii (CFR) isolates
Summary of the method: as §1

[3] = system: Morganella morganii (MMO) isolates
Summary of the method: as §1

`COCC1=C(C(=O)O)N2C(=O)[C@@H](NC(=O)/C(=N\OC)c3csc(N)n3)[C@H]2SC1` [POD, Cefpodoxime] was tested, and the MIC ([1]; BAA1898, strain KPN BAA-1898, genotype TEM-1, SHV-11, SHV-12, KPC-2) was greater than 512 µg/mL, the MIC ([1]; strain KPN 6299, genotype TEM-1, SHV-11, OXA-163) was 64 µg/mL and the MIC ([1]; strain KPN 700603, genotype SHV-18, OXA-2) was 16 µg/mL. The MIC ([1]; strain KPN LIB, genotype SHV-11, OXA-48) was 1 µg/mL, the MIC ([1]; strain KPN UFR22_O, genotype TEM-1, SHV-1, OXA-48) was 1 µg/mL and the MIC ([1]; strain KPN UFR23, genotype TEM-1, SHV-1, OXA-48) was 0.5 µg/mL. It also gave an MIC ([1]; strain KPN UFR77, genotype CMY-2) of 64 µg/mL, an MIC ([1]; strain KPN UFR79, genotype DHA-1, OXA-1) of 32 µg/mL and an MIC ([1]; strain KPN UFR80, genotype SHV-11, DHA-1, OXA-1) of 2 µg/mL. The MIC ([2]; Citrobacter freundii, strain CFR UFR253, genotype TEM-1, SHV-12, OXA-48, read-out: MIC) was 32 µg/mL, the MIC ([2]; Citrobacter freundii, strain CFR UFR254, genotype VEB-1b, OXA-48, qnrA, read-out: MIC) was 32 µg/mL and the MIC ([3]; Morganella morganii, strain MMO UFR243, genotype DHA-1, read-out: MIC) was 64 µg/mL. For the same compound, the MIC ([3]; Morganella morganii, strain MMO UFR244, genotype DHA-1, read-out: MIC) was 16 µg/mL, the MIC ([3]; Morganella morganii, strain MMO UFR245, genotype DHA-1, read-out: MIC) was 64 µg/mL and the MIC ([3]; Morganella morganii, strain MMO UFR246, genotype DHA-1, read-out: MIC) was 64 µg/mL. It also gave an MIC ([3]; Morganella morganii, strain MMO UFR247, genotype DHA-1, read-out: MIC) of 64 µg/mL.
In the case of `CC(C)(O/N=C(\C(=O)N[C@@H]1C(=O)N2C(C(=O)[O-])=C(C[n+]3ccccc3)CS[C@H]12)c1csc(N)n1)C(=O)O` [CAZ, Ceftazidime], the “MIC ATB in combination” value ([2]; CFR UFR10, AF2 @ 8 μg/mL) was “<=0.25 μg/mL”, the “MIC ATB in combination” value ([2]; CFR UFR10, AF3 @ 8 μg/mL) was less than 0.25 µg/mL and the “MIC ATB in combination” value ([2]; CFR UFR11, AF2 @ 8 μg/mL) was 8 µg/mL. The “MIC ATB in combination” value ([2]; CFR UFR11, AF3 @ 8 μg/mL) was 4 µg/mL, the “MIC ATB in combination” value ([2]; CFR UFR37, AF2 @ 8 μg/mL) was 8 µg/mL and the “MIC ATB in combination” value ([2]; CFR UFR37, AF3 @ 8 μg/mL) was less than 0.25 µg/mL. The “MIC ATB in combination” value ([2]; CFR UFR83, AF2 @ 8 μg/mL) was greater than 128 µg/mL, the “MIC ATB in combination” value ([2]; CFR UFR83, AF3 @ 8 μg/mL) was greater than 128 µg/mL and the “MIC ATB in combination” value ([2]; CFR UFR146, AF2 @ 8 μg/mL) was 2 µg/mL. For the same compound, the “MIC ATB in combination” value ([2]; CFR UFR146, AF3 @ 8 μg/mL) was 1 µg/mL, the “MIC ATB in combination” value ([2]; CFR UFR248, AF2 @ 8 μg/mL) was less than 0.25 µg/mL and the “MIC ATB in combination” value ([2]; CFR UFR248, AF3 @ 8 μg/mL) was less than 0.25 µg/mL. The “MIC ATB in combination” value ([2]; CFR UFR249, AF2 @ 8 μg/mL) was “<=0.25 μg/mL”, the “MIC ATB in combination” value ([2]; CFR UFR249, AF3 @ 8 μg/mL) was less than 0.25 µg/mL and the “MIC ATB in combination” value ([2]; CFR UFR250, AF2 @ 8 μg/mL) was “<=0.25 μg/mL”. The “MIC ATB in combination” value ([2]; CFR UFR250, AF3 @ 8 μg/mL) was less than 0.25 µg/mL, the MIC ([2]; strain CFR UFR11, genotype TEM-1, OXA-1, OXA-48) was 8 µg/mL and the MIC ([2]; strain CFR UFR37, genotype TEM-1, CTX-M-15, NDM-1) was greater than 128 µg/mL. It also gave an MIC ([2]; strain CFR UFR83, genotype TEM-3, AmpC) greater than 128 µg/mL, an MIC ([2]; strain CFR UFR146, genotype TEM-1, KPC-2) of 32 µg/mL and an MIC ([2]; strain CFR UFR147, genotype TEM-1, CTX-M-15, OXA-1, OXA-181, OXA-10, OXA-9, NDM-1, ArmA, dfrA12, aadA2, antibiotic alone) greater than 128 µg/mL. The “MIC ATB in combination” value ([2]; strain CFR UFR147, with AF2 @ 8 μg/mL) was less than 0.25 µg/mL, the “MIC ATB in combination” value ([2]; strain CFR UFR147, with AF3 @ 8 μg/mL) was less than 0.25 µg/mL and the MIC ([2]; strain CFR UFR148, genotype TEM-1, TEM-2, CTX-M-15, NDM-1, antibiotic alone) was greater than 128 µg/mL. For the same compound, the “MIC ATB in combination” value ([2]; strain CFR UFR148, with AF2 @ 8 μg/mL) was less than 0.25 µg/mL, the “MIC ATB in combination” value ([2]; strain CFR UFR148, with AF3 @ 8 μg/mL) was less than 0.25 µg/mL and the MIC ([2]; strain CFR UFR249, genotype TEM-1, CTX-M-15) was 64 µg/mL. The “MIC ATB in combination” value ([2]; strain CFR UFR251, with AF2 @ 8 μg/mL) was 0.5 µg/mL, the “MIC ATB in combination” value ([2]; strain CFR UFR251, with AF3 @ 8 μg/mL) was less than 0.25 µg/mL and the MIC ([2]; strain CFR UFR252, genotype VIM-2, antibiotic alone) was 64 µg/mL. For the same compound, the “MIC ATB in combination” value ([2]; strain CFR UFR252, with AF2 @ 8 μg/mL) was 8 µg/mL, the “MIC ATB in combination” value ([2]; strain CFR UFR252, with AF3 @ 8 μg/mL) was 16 µg/mL and the MIC ([2]; strain CFR UFR253, genotype TEM-1, SHV-12, OXA-48) was greater than 128 µg/mL. The “MIC ATB in combination” value ([2]; strain CFR UFR253, with AF2 @ 8 μg/mL) was 8 µg/mL, the “MIC ATB in combination” value ([2]; strain CFR UFR253, with AF3 @ 8 μg/mL) was 4 µg/mL and the “MIC ATB in combination” value ([2]; strain CFR UFR254, with AF2 @ 8 μg/mL) was less than 0.25 µg/mL. For the same compound, the “MIC ATB in combination” value ([2]; strain CFR UFR254, with AF3 @ 8 μg/mL) was 0.5 µg/mL, the “MIC ATB in combination” value ([3]; MMO 200321, AF2 @ 8 μg/mL) was “<=0.25 μg/mL” and the “MIC ATB in combination” value ([3]; MMO 200321, AF3 @ 8 μg/mL) was “<=0.25 μg/mL”. For the same compound, the “MIC ATB in combination” value ([3]; MMO UFR144, AF2 @ 8 μg/mL) was “<=0.25 μg/mL”, the “MIC ATB in combination” value ([3]; MMO UFR144, AF3 @ 8 μg/mL) was “<=0.25 μg/mL” and the “MIC ATB in combination” value ([3]; MMO UFR240, AF2 @ 8 μg/mL) was “<=0.25 μg/mL”. For the same compound, the “MIC ATB in combination” value ([3]; MMO UFR240, AF3 @ 8 μg/mL) was “<=0.25 μg/mL”, the “MIC ATB in combination” value ([3]; MMO UFR241, AF2 @ 8 μg/mL) was “<=0.25 μg/mL” and the “MIC ATB in combination” value ([3]; MMO UFR241, AF3 @ 8 μg/mL) was “<=0.25 μg/mL”. For the same compound, the “MIC ATB in combination” value ([3]; MMO UFR242, AF2 @ 8 μg/mL) was “<=0.25 μg/mL”, the “MIC ATB in combination” value ([3]; MMO UFR242, AF3 @ 8 μg/mL) was “<=0.25 μg/mL” and the “MIC ATB in combination” value ([3]; MMO UFR243, AF2 @ 8 μg/mL) was “<=0.25 μg/mL”. The “MIC ATB in combination” value ([3]; MMO UFR243, AF3 @ 8 μg/mL) was “<=0.25 μg/mL”, the “MIC ATB in combination” value ([3]; MMO UFR244, AF2 @ 8 μg/mL) was “<=0.25 μg/mL” and the “MIC ATB in combination” value ([3]; MMO UFR244, AF3 @ 8 μg/mL) was “<=0.25 μg/mL”. The “MIC ATB in combination” value ([3]; MMO UFR245, AF2 @ 8 μg/mL) was “<=0.25 μg/mL”, the “MIC ATB in combination” value ([3]; MMO UFR245, AF3 @ 8 μg/mL) was “<=0.25 μg/mL” and the “MIC ATB in combination” value ([3]; MMO UFR246, AF2 @ 8 μg/mL) was “<=0.25 μg/mL”. The “MIC ATB in combination” value ([3]; MMO UFR246, AF3 @ 8 μg/mL) was “<=0.25 μg/mL”, the “MIC ATB in combination” value ([3]; MMO UFR247, AF2 @ 8 μg/mL) was “<=0.25 μg/mL” and the “MIC ATB in combination” value ([3]; MMO UFR247, AF3 @ 8 μg/mL) was “<=0.25 μg/mL”. The MIC ([3]; strain MMO 200321, genotype TEM-1, CTX-M-15, OXA-1) was 16 µg/mL, the MIC ([3]; strain MMO UFR144, genotype TEM-1, CTX-M-15) was 8 µg/mL and the “MIC ATB in combination” value ([3]; strain MMO UFR145, with AF2 @ 8 μg/mL) was greater than 128 µg/mL. The “MIC ATB in combination” value ([3]; strain MMO UFR145, with AF3 @ 8 μg/mL) was greater than 128 µg/mL, the MIC ([3]; strain MMO UFR240, genotype CTX-M-9) was 0.5 µg/mL and the MIC ([3]; strain MMO UFR241, genotype TEM-1, CTX-M-15) was 8 µg/mL. It also gave an MIC ([3]; strain MMO UFR242, genotype TEM-52) of 32 µg/mL, an MIC ([3]; strain MMO UFR243, genotype DHA-1) of 1 µg/mL and an MIC ([3]; strain MMO UFR244, genotype DHA-1) of 0.5 µg/mL. It also gave an MIC ([3]; strain MMO UFR245, genotype DHA-1) of 8 µg/mL, an MIC ([3]; strain MMO UFR246, genotype DHA-1) of 4 µg/mL and an MIC ([3]; strain MMO UFR247, genotype DHA-1) of 0.5 µg/mL.

Source: patent US20200017495A1, “NOVEL HETEROCYCLIC COMPOUNDS AND THEIR USE IN PREVENTING OR TREATING BACTERIAL INFECTIONS” (priority 2017, published 2020)
